Here are results for 2 compounds from patent US20180305370A1 (ORPHOMED, INC., priority 2015, published 2018).

Data set [1] has as its system formalin-induced hind paw licking. As to the kind of experiment: Analgesia, formalin paw mouse study (hind paw licking time).
Data set [2] can be described thus: In vivo pharmacokinetic study, IV and oral gavage.
Protocol: The animal pharmacokinetic studies were conducted at Johns Hopkins Medical Institute using CD-1 mice (weighing about 35 gm, n=3 per time point). […] Blood collected at 0, 30 min and 1, 2, 6 and 24 hours post-dose. Blood samples for the drug were analyzed after harvesting the plasma and by LC/MS/MS as follows:
Extracts were centrifuged at 16000×g at 4° C. for 5 minutes. Supernatants (250 μL) were transferred to a new tube and dried under N2 at 45° C. for 1 hour. Samples were reconstituted with 100 μL of 30% acetonitrile, vortexed and centrifuged. Supernatants (90 μL) were transferred to LC vials and 10 μL was injected on LC/MS.
In another data set the test system is human liver microsomes. As to the kind of experiment: Metabolic stability in human liver microsomes. To be noted: 1 μM, human liver microsomes 1 mg protein/mL, up to 120 min, FIG. 1. A general note: Liver microsomes are a subcellular fraction often used to study metabolism.
The conditions of data set [3]: for stability over time: 28 months, room temperature.
For data set [4] the following is noted: in vivo; cited from earlier work.
The conditions of data set [5]: cited from earlier work.
A further data set deals with ORL-1 (Homo sapiens, UniProt P41146). To be noted: cited from earlier work.
Chain of ORL-1 (P41146 whole entry, species assumed): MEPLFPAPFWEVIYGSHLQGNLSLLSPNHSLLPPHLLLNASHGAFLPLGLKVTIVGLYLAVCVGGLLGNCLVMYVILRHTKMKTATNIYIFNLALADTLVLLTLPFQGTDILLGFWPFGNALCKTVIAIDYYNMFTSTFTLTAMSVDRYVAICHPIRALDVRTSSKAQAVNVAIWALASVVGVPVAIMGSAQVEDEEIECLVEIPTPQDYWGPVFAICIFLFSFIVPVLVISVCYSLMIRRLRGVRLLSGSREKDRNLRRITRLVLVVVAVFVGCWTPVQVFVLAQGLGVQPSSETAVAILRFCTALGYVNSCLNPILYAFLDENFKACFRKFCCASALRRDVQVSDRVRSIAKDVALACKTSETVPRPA

Read-outs that look alike come from different tables or passages of the source.

In the case of “2-[(2S)-2-[(5R,6R,7R,14S)-9α-cyclopropylmethyl-4,5-epoxy-6,14-ethano-3-hydroxy-6-methoxymorphinan-7-yl]-3,3-dimethylbutan-2-ol]-ethanol [EGE buprenorphine hydrochloride]”, the analgesic effect entry in data set [1] (5 mg/kg IP, mice, FIG. 9) is “rapid analgesic effect”. For the same compound, the “activity, less than morphine” value in data set [1] (animal studies versus morphine (Example 7)) is on record as “about 2.5%”. For the same compound, in data set [2] (CD-1 mice, 10 mg/kg oral gavage vs IV, FIG. 6), the “absolute bioavailability (ratio of area under the concentration curve after oral and IV dose)” value is “about 40%”. The “bioavailability, less than morphine” value in data set [2] (animal studies versus morphine) is “about 40%”. The “metabolism in presence of microsomal enzymes” value in the data set on human liver microsomes was “rapid metabolism”. Moreover, the stability over time result in data set [3] (listed as EGE conjugate) is given as “unchanged over time”; in data set [3] (listed as compound of the invention), “significantly more stable”. Moreover, the “HPLC Purity, September 2015” value in data set [3] (hydrochloride salt, after 28 months at room temperature in clear glass vials) was 98.7% (AUC). For the same compound, the “HPLC Purity, May 2013” value in data set [3] (hydrochloride salt, immediately after synthesis, stability baseline) was 98.6% (AUC).

Turning to `CO[C@]12CC[C@@]3(C[C@@H]1[C@](C)(O)C(C)(C)C)[C@H]1Cc4ccc(O)c5c4[C@@]3(CCN1CC1CC1)[C@H]2O5` [Buprenorphine, buprenorphine], the “analgesic potency compared with morphine” value in data set [4] was “about thirty times more potent”. Further, the “absolute bioavailability after an oral dose” value in data set [5] is “less than 10%”. For the same compound, at ORL-1, the Activity entry is given as “Agonist”.
